Source: PubChem BioAssay (NCI)
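Protocol summary: plate cells (96-well), add compound at 5 concentrations, incubate 48 h, interpolate endpoints linearly. At the TGI there is no net growth.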

Key:
Test in all cases: NCI tumour cell line growth inhibition, 48 h
DLD-1 colon = test system: DLD-1 colon
SK-MEL-28 melanoma = test system: SK-MEL-28 melanoma
KM20L2 colon = test system: KM20L2 colon
SK-MEL-5 melanoma = test system: SK-MEL-5 melanoma
DMS 114 small cell lung = test system: DMS 114 small cell lung
M19-MEL melanoma = test system: M19-MEL melanoma
DMS 273 small cell lung = test system: DMS 273 small cell lung
P388 leukemia = test system: P388 leukemia
HOP-18 NSCLC = test system: HOP-18 NSCLC
SNB-78 CNS = test system: SNB-78 CNS
XF 498 CNS = test system: XF 498 CNS
HOP-62 NSCLC = test system: HOP-62 NSCLC
U251 CNS = test system: U251 CNS
HCC-2998 colon = test system: HCC-2998 colon
SN12K1 renal = test system: SN12K1 renal
LXFL 529 NSCLC = test system: LXFL 529 NSCLC

C=C1C(=O)C[C@@]23CCC[C@@]12CC(OCOC)C3 (stereo partly specified)
TGI (DLD-1 colon): 4.81 µM
TGI (SK-MEL-28 melanoma): 8.14 µM
TGI (KM20L2 colon): 9.02 µM
TGI (SK-MEL-5 melanoma): 13.3 µM
TGI (DMS 114 small cell lung): 5.13 µM
TGI (M19-MEL melanoma): 12.5 µM
TGI (DMS 273 small cell lung): 6.65 µM
TGI (P388 leukemia): 1.92 µM
TGI (HOP-18 NSCLC): 11.5 µM
TGI (SNB-78 CNS): 22.5 µM
TGI (XF 498 CNS): 8.33 µM
TGI (HOP-62 NSCLC): 25.9 µM
TGI (U251 CNS): 21 µM
TGI (HCC-2998 colon): 12.3 µM
TGI (SN12K1 renal): 4.13 µM

COc1ccc(C2Oc3cc(OC)c(O)c(C)c3[C@H]2C)cc1 (stereo partly specified)
TGI (DLD-1 colon): > 100 µM
TGI (SK-MEL-28 melanoma): > 100 µM
TGI (KM20L2 colon): > 100 µM
TGI (SK-MEL-5 melanoma): > 100 µM
TGI (DMS 114 small cell lung): > 100 µM
TGI (M19-MEL melanoma): > 100 µM
TGI (DMS 273 small cell lung): > 100 µM
TGI (HOP-18 NSCLC): > 100 µM
TGI (LXFL 529 NSCLC): > 100 µM
TGI (SNB-78 CNS): > 100 µM
TGI (HOP-62 NSCLC): > 100 µM
TGI (U251 CNS): > 100 µM
TGI (HCC-2998 colon): > 100 µM

CC(C)CCC[C@@H](C)C1CCC2[C@@H]3CC=C4C[C@@H](C(=O)NCC[N+](C)(C)CCCS(=O)(=O)[O-])CC[C@]4(C)C3CC[C@@]21C (stereo partly specified)
TGI (DLD-1 colon): 49.7 µM
TGI (SK-MEL-28 melanoma): 34.5 µM
TGI (KM20L2 colon): 30.4 µM
TGI (SK-MEL-5 melanoma): 41.4 µM
TGI (DMS 114 small cell lung): 35.7 µM
TGI (M19-MEL melanoma): 31.1 µM
TGI (DMS 273 small cell lung): 31.4 µM
TGI (HOP-18 NSCLC): 35.8 µM
TGI (LXFL 529 NSCLC): 33.3 µM
TGI (SNB-78 CNS): 37.4 µM
TGI (HOP-62 NSCLC): 42.9 µM
TGI (U251 CNS): 31.2 µM
TGI (HCC-2998 colon): 35.2 µM

CS(=O)(=O)c1c(N)c2nc(Cl)cn2c2nc3ccccc3nc12
TGI (DLD-1 colon): > 100 µM
TGI (SK-MEL-28 melanoma): > 100 µM
TGI (KM20L2 colon): > 100 µM
TGI (SK-MEL-5 melanoma): > 100 µM
TGI (DMS 114 small cell lung): > 100 µM
TGI (M19-MEL melanoma): > 100 µM
TGI (DMS 273 small cell lung): > 100 µM
TGI (LXFL 529 NSCLC): > 100 µM
TGI (SNB-78 CNS): > 100 µM
TGI (XF 498 CNS): > 100 µM
TGI (HOP-62 NSCLC): > 100 µM
TGI (U251 CNS): > 100 µM
TGI (HCC-2998 colon): > 100 µM

C=C1C(=O)OC2/C=C(/C)C3CC(O)C(C)(CC(OC(=O)/C(C)=C/C)C12)O3 (stereo unspecified)
TGI (DLD-1 colon): 3.12 µM
TGI (SK-MEL-28 melanoma): 8.35 µM
TGI (KM20L2 colon): 13.1 µM
TGI (SK-MEL-5 melanoma): 16.2 µM
TGI (DMS 114 small cell lung): 19.8 µM
TGI (M19-MEL melanoma): 9.57 µM
TGI (DMS 273 small cell lung): 8.8 µM
TGI (HOP-18 NSCLC): 31.2 µM
TGI (LXFL 529 NSCLC): 5.84 µM
TGI (SNB-78 CNS): 7.7 µM
TGI (XF 498 CNS): 17.2 µM
TGI (HOP-62 NSCLC): 46.7 µM
TGI (U251 CNS): 25.3 µM
TGI (HCC-2998 colon): 28.4 µM

c1ccc(C2=NOC3(c4ccccc4)SC4CCCCC4CN23)cc1 (stereo unspecified)
TGI (DLD-1 colon): > 100 µM
TGI (SK-MEL-28 melanoma): > 100 µM
TGI (KM20L2 colon): > 100 µM
TGI (SK-MEL-5 melanoma): 28.7 µM
TGI (DMS 114 small cell lung): 30.5 µM
TGI (M19-MEL melanoma): > 100 µM
TGI (DMS 273 small cell lung): 77.3 µM
TGI (HOP-18 NSCLC): > 100 µM
TGI (LXFL 529 NSCLC): 27 µM
TGI (SNB-78 CNS): 91.7 µM
TGI (XF 498 CNS): > 100 µM
TGI (HOP-62 NSCLC): > 100 µM
TGI (U251 CNS): 37.6 µM
TGI (HCC-2998 colon): > 100 µM

CC(C)(C)NC(=O)NC12CC3CC(CC(F)(C3)C1)C2
TGI (DLD-1 colon): > 100 µM
TGI (SK-MEL-28 melanoma): > 100 µM
TGI (KM20L2 colon): > 100 µM
TGI (DMS 114 small cell lung): > 100 µM
TGI (M19-MEL melanoma): > 100 µM
TGI (DMS 273 small cell lung): > 100 µM
TGI (LXFL 529 NSCLC): > 100 µM
TGI (SNB-78 CNS): > 100 µM
TGI (XF 498 CNS): > 100 µM
TGI (HOP-62 NSCLC): > 100 µM
TGI (U251 CNS): > 100 µM
TGI (HCC-2998 colon): > 100 µM

O=c1[nH]c2cc([N+](=O)[O-])ccc2nc1/C(=N/Nc1ccccc1)C(O)c1ccc(C(O)/C(=N\Nc2ccccc2)c2cnc3cc([N+](=O)[O-])ccc3n2)cc1 (stereo unspecified)
TGI (SK-MEL-28 melanoma): > 100 µM
TGI (KM20L2 colon): > 100 µM
TGI (SK-MEL-5 melanoma): > 100 µM
TGI (DMS 114 small cell lung): > 100 µM
TGI (M19-MEL melanoma): > 100 µM
TGI (HOP-62 NSCLC): > 100 µM
TGI (HCC-2998 colon): 87.1 µM

CCN(CC)CCCNc1ncc(C)c2[nH]c3ccncc3c12
TGI (DLD-1 colon): > 79.9 µM
TGI (SK-MEL-28 melanoma): 27.4 µM
TGI (KM20L2 colon): 31 µM
TGI (SK-MEL-5 melanoma): 28.1 µM
TGI (DMS 114 small cell lung): 24.1 µM
TGI (M19-MEL melanoma): 28 µM
TGI (DMS 273 small cell lung): 25.8 µM
TGI (P388 leukemia): 15.3 µM
TGI (SNB-78 CNS): > 100 µM
TGI (XF 498 CNS): 24 µM
TGI (HOP-62 NSCLC): 79.5 µM
TGI (U251 CNS): 30.6 µM
TGI (HCC-2998 colon): 23.6 µM
TGI (SN12K1 renal): 19.9 µM

O=C(O)CS
TGI (DLD-1 colon): > 100 µM
TGI (SK-MEL-28 melanoma): > 100 µM
TGI (KM20L2 colon): > 100 µM
TGI (SK-MEL-5 melanoma): > 100 µM
TGI (DMS 114 small cell lung): > 100 µM
TGI (M19-MEL melanoma): > 100 µM
TGI (DMS 273 small cell lung): > 100 µM
TGI (LXFL 529 NSCLC): > 100 µM
TGI (SNB-78 CNS): > 100 µM
TGI (XF 498 CNS): > 100 µM
TGI (U251 CNS): > 100 µM
TGI (HCC-2998 colon): > 100 µM

COC(=O)c1cccc(N[C@@H]2c3cc4c(cc3C(c3cc(OC)c(O)c(OC)c3)[C@H]3C(=O)OCC32)OCO4)c1 (stereo partly specified)
TGI (DLD-1 colon): 15 µM
TGI (SK-MEL-28 melanoma): > 100 µM
TGI (KM20L2 colon): > 32.7 µM
TGI (SK-MEL-5 melanoma): 3.02 µM
TGI (DMS 114 small cell lung): 4.3 µM
TGI (M19-MEL melanoma): > 100 µM
TGI (DMS 273 small cell lung): 3.35 µM
TGI (P388 leukemia): 0.826 µM
TGI (HOP-18 NSCLC): 21.6 µM
TGI (SNB-78 CNS): 98.7 µM
TGI (XF 498 CNS): > 27.4 µM
TGI (HOP-62 NSCLC): 0.937 µM
TGI (U251 CNS): 12.2 µM
TGI (HCC-2998 colon): 8.09 µM
TGI (SN12K1 renal): 9.75 µM

CN(CCO)c1nc(N)cc(=O)[nH]1
TGI (DLD-1 colon): > 100 µM
TGI (SK-MEL-28 melanoma): > 100 µM
TGI (KM20L2 colon): > 100 µM
TGI (SK-MEL-5 melanoma): > 100 µM
TGI (DMS 114 small cell lung): > 100 µM
TGI (M19-MEL melanoma): > 100 µM
TGI (DMS 273 small cell lung): > 100 µM
TGI (HOP-18 NSCLC): > 100 µM
TGI (LXFL 529 NSCLC): > 100 µM
TGI (SNB-78 CNS): > 100 µM
TGI (XF 498 CNS): > 100 µM
TGI (HOP-62 NSCLC): > 100 µM
TGI (U251 CNS): > 100 µM
TGI (HCC-2998 colon): > 100 µM

S=P1(N2CCCCC2)Oc2ccc3ccccc3c2-c2c(ccc3ccccc23)O1
TGI (DLD-1 colon): > 100 µM
TGI (SK-MEL-28 melanoma): > 100 µM
TGI (KM20L2 colon): > 100 µM
TGI (SK-MEL-5 melanoma): > 100 µM
TGI (DMS 114 small cell lung): > 100 µM
TGI (M19-MEL melanoma): > 100 µM
TGI (DMS 273 small cell lung): > 100 µM
TGI (P388 leukemia): > 100 µM
TGI (HOP-18 NSCLC): > 100 µM
TGI (SNB-78 CNS): > 100 µM
TGI (XF 498 CNS): > 100 µM
TGI (HOP-62 NSCLC): > 100 µM
TGI (U251 CNS): > 100 µM
TGI (HCC-2998 colon): > 100 µM
TGI (SN12K1 renal): > 100 µM

CC1(C)CC(=O)C2=C(C1)NC1=C(C(=O)CC(C)(C)C1)C2c1ccc([N+](=O)[O-])cc1
TGI (SK-MEL-28 melanoma): > 100 µM
TGI (SK-MEL-5 melanoma): > 100 µM
TGI (HOP-62 NSCLC): > 100 µM
TGI (U251 CNS): > 100 µM
TGI (HCC-2998 colon): > 100 µM

COc1cc(C=C2C(C)=NN(c3cccc(Cl)c3)C23C(Cl)C(=O)N3c2nc3ccccc3s2)ccc1O (stereo unspecified)
TGI (SK-MEL-28 melanoma): > 100 µM
TGI (SK-MEL-5 melanoma): 36.9 µM
TGI (HOP-62 NSCLC): 69.1 µM
TGI (U251 CNS): 35 µM
TGI (HCC-2998 colon): 9.16 µM
